Test results taken from patent US5061794A, “Cephalosporin derivatives, and antibacterial agents” (priority 1986, dated 1991).
≈ marks a conversion by molar mass, not a printed value. Structures can show the parent of a compound that is named as a salt. Where two headings read alike, the source gives them in different places.

Experiments:
Ps. cepacia 23 = test: in vitro antibacterial activity, agar plate dilution method (MIC); type: cell-based, Pseudomonas cepacia; conditions: read-out: Minimum Inhibitory Concentration (MIC)
In short: (§1)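 Agar dilution: MH agar + graded drug conc.; inoculum 10^6 CFU/ml (overnight MH broth culture, one loopful); 37° C., 16 h; MIC, μg/ml.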

E. coli CSH2 (RK1) = test: microbe, parasite or virus in culture; type: cell-based; conditions: Escherichia coli, 16 h, read-out: Minimum Inhibitory Concentration (MIC), *E. coli CSH2 (RK1), lactamase-producing strain; 10^6 CFU/ml
In short: as §1

E. coli CSH(RE45) = test: microbe, parasite or virus in culture; type: cell-based; conditions: Escherichia coli, 16 h, read-out: Minimum Inhibitory Concentration (MIC), *E. coli CSH(RE45), lactamase-producing strain; 10^6 CFU/ml
In short: as §1

E. cloacae 963 = test: in vitro antibacterial activity, agar plate dilution method (MIC); type: cell-based; conditions: Enterobacter cloacae, 963, 16 h, read-out: Minimum Inhibitory Concentration (MIC), E. cloacae 963; 10^6 CFU/ml
In short: as §1

M. morganii GN5407 = test: as above; type: cell-based; conditions: Morganella morganii, GN5407, 16 h, read-out: Minimum Inhibitory Concentration (MIC), *M. morganii GN5407, lactamase-producing strain; 10^6 CFU/ml
In short: as §1

E. coli GN5482 = test: as above; type: cell-based; conditions: Escherichia coli
In short: as §1

K. oxytoca GN10650 = test: as above; type: cell-based; conditions: Klebsiella oxytoca, 10^6 CFU/ml
In short: as §1

E. cloacae Nek 39 = test: as above; type: cell-based; conditions: Enterobacter cloacae, NEK39, 16 h, 10^6 CFU/ml
In short: as §1

E. coli NIHJ JC2 = test: as above; type: cell-based; conditions: Escherichia coli, NIHJJC2, 16 h, read-out: Minimum Inhibitory Concentration (MIC), E. coli NIHJ JC2, 10^6 CFU/ml, 37° C.
In short: as §1

K. pneumoniae No. 42 = test: as above; type: cell-based; conditions: Klebsiella pneumoniae, NO.42, 16 h, read-out: Minimum Inhibitory Concentration (MIC), *K. pneumoniae No. 42, lactamase-producing strain; 10^6 CFU/ml
In short: as §1

S. aureus 209P NIHJ-JC1 = test: as above; type: cell-based; conditions: Staphylococcus aureus, 16 h
In short: as §1

P. vulgaris No. 33 = test: as above; type: cell-based; conditions: Proteus vulgaris, NO.33, 16 h, read-out: Minimum Inhibitory Concentration (MIC), *P. vulgaris No. 33, lactamase-producing strain; 10^6 CFU/ml
In short: as §1

S. marcescens IAM 1184 = test: as above; type: cell-based; conditions: Serratia marcescens, IAM1184, 16 h, read-out: Minimum Inhibitory Concentration (MIC)
In short: as §1

K. pneumoniae PCI-602 = test: as above; type: cell-based; conditions: Klebsiella pneumoniae, PCI602, 16 h, 10^6 CFU/ml
In short: as §1

P. vulgaris HX-19 = test: as above; type: cell-based; conditions: Proteus vulgaris, HX19, 16 h, P. vulgaris HX-19; 10^6 CFU/ml; read-out: Minimum Inhibitory Concentration (MIC)
In short: as §1

S. marcescens No. 16-2 = test: as above; type: cell-based; conditions: Serratia marcescens, NO.162, 16 h; *S. marcescens No. 16-2, lactamase-producing strain; 10^6 CFU/ml; read-out: Minimum Inhibitory Concentration (MIC)
In short: as §1

A. calcoaceticus No. 4 = test: as above; type: cell-based, Acinetobacter calcoaceticus; conditions: Acinetobacter calcoaceticus, NO.4, 16 h, 10^6 CFU/ml
In short: as §1

Ps. aeruginosa IF03445 = test: as above; type: cell-based, Pseudomonas aeruginosa; conditions: Pseudomonas aeruginosa, 10^6 CFU/ml
In short: as §1

Ps. aeruginosa AK 109 = test: as above; type: cell-based, Pseudomonas aeruginosa; conditions: Pseudomonas aeruginosa, AK109, 16 h
In short: as §1

Ps. aeruginosa AKR17 = test: as above; type: cell-based, Pseudomonas aeruginosa; conditions: Pseudomonas aeruginosa, read-out: Minimum Inhibitory Concentration (MIC)
In short: as §1

[1] = GN5482, 16 h, read-out: Minimum Inhibitory Concentration (MIC)
[2] = 16 h, *K. oxytoca GN10650, lactamase-producing strain, read-out: Minimum Inhibitory Concentration (MIC)
[3] = *E. cloacae Nek 39, lactamase-producing strain, read-out: Minimum Inhibitory Concentration (MIC)
[4] = read-out: Minimum Inhibitory Concentration (MIC)
[5] = K. pneumoniae PCI-602, read-out: Minimum Inhibitory Concentration (MIC)
[6] = A. calcoaceticus No. 4, read-out: Minimum Inhibitory Concentration (MIC)
[7] = 16 h, Ps. aeruginosa IF03445, read-out: Minimum Inhibitory Concentration (MIC)
[8] = Ps. aeruginosa AK 109, 10^6 CFU/ml, read-out: Minimum Inhibitory Concentration (MIC)
[9] = 16 h, Ps. aeruginosa AKR17, 10^6 CFU/ml
[10] = GN10650, 16 h, read-out: Minimum Inhibitory Concentration (MIC), *K. oxytoca GN10650, lactamase-producing strain
[11] = read-out: Minimum Inhibitory Concentration (MIC), *E. cloacae Nek 39, lactamase-producing strain
[12] = S. aureus 209P NIHJ-JC1, 10^6 CFU/ml, 37° C., 16 hours, read-out: Minimum Inhibitory Concentration (MIC)
[13] = S. marcescens IAM 1184, 10^6 CFU/ml
[14] = IF03445, 16 h, read-out: Minimum Inhibitory Concentration (MIC), Ps. aeruginosa IF03445
[15] = GN5482, 16 h, read-out: Minimum Inhibitory Concentration (MIC), *E. coli GN5482, lactamase-producing strain, 10^6 CFU/ml
[16] = read-out: Minimum Inhibitory Concentration (MIC), K. pneumoniae PCI-602

Row | SMILES | MIC (Ps. cepacia 23; Burkholderia cepacia, 23, 16 h) [µg/mL] | MIC (E. coli CSH2 (RK1)) [µg/mL] | MIC (E. coli CSH(RE45)) [µg/mL] | MIC (E. cloacae 963) [µg/mL] | MIC (M. morganii GN5407) [µg/mL] | MIC (E. coli GN5482; [1]) [µg/mL] | MIC (K. oxytoca GN10650; [2]) [µg/mL] | MIC (E. coli NIHJ JC2) [µg/mL] | MIC (K. pneumoniae No. 42) [µg/mL] | MIC (S. aureus 209P NIHJ-JC1; [4]) [µg/mL] | MIC (P. vulgaris No. 33) [µg/mL] | MIC (S. marcescens IAM 1184) [µg/mL] | MIC (K. pneumoniae PCI-602; [5]) [µg/mL] | MIC (P. vulgaris HX-19) [µg/mL] | MIC (S. marcescens No. 16-2) [µg/mL] | MIC (A. calcoaceticus No. 4; [6]) [µg/mL] | MIC (Ps. aeruginosa IF03445; [7]) [µg/mL] | MIC (Ps. aeruginosa AK 109; [8]) [µg/mL] | MIC (Ps. aeruginosa AKR17; [9]) [µg/mL] | MIC (E. cloacae Nek 39; [11]) [µg/mL] | other results
1 | CO/N=C(\C(=O)N[C@@H]1C(=O)N2C(C(=O)O)=C(CSc3nc(-c4ccc(OC)c(OC)c4)cs3)CS[C@H]12)c1csc(N)n1 [compound 13, trifluoroacetate, reference compound] | 12.5 | 1.56 | 6.25 | 12.5 | 6.25 | 3.12 | 25 | 6.25 | 6.25 | 0.39 | 3.12 | 3.12 | 0.05 | 0.05 | 50 | 100 | > 100 | 100 | > 100 |  | MIC (E. cloacae Nek 39; [3]): 25 µg/mL
2 | CC(C)(O/N=C(\C(=O)N[C@@H]1C(=O)N2C(C(=O)O)=C(CSc3nc(C(=O)O)c(-c4ccccc4)s3)CS[C@H]12)c1csc(N)n1)C(=O)O [compound 14, reference compound] | 0.78 (≈ 1.11 µM) | 1.56 (≈ 2.21 µM) | 1.56 (≈ 2.21 µM) | 1.56 (≈ 2.21 µM) | 0.2 (≈ 0.284 µM) |  |  | 1.56 (≈ 2.21 µM) | 1.56 (≈ 2.21 µM) |  | 0.025 (≈ 0.0355 µM) |  | 0.2 (≈ 0.284 µM) | < 0.006 | 25 (≈ 35.5 µM) | 50 (≈ 70.9 µM) |  |  | > 100 | 12.5 (≈ 17.7 µM) | MIC (E. coli GN5482; 16 h, *E. coli GN5482, lactamase-producing strain, 10^6 CFU/ml, read-out: Minimum Inhibitory Concentration (MIC)): 3.12 µg/mL (≈ 4.43 µM); MIC (K. oxytoca GN10650; [10]): 1.56 µg/mL (≈ 2.21 µM); MIC (S. aureus 209P NIHJ-JC1; [12]): 50 µg/mL (≈ 70.9 µM); MIC (S. marcescens IAM 1184; [13]): 0.1 µg/mL (≈ 0.142 µM); MIC (Ps. aeruginosa IF03445; [14]): 12.5 µg/mL (≈ 17.7 µM); MIC (Ps. aeruginosa AK 109; [4]): 12.5 µg/mL (≈ 17.7 µM)
3 | CO/N=C(\C(=O)N[C@@H]1C(=O)N2C(C(=O)O)=C(CSc3nc(-c4ccccc4)c(CC(=O)O)s3)CS[C@H]12)c1csc(N)n1 [compound 15, disodium 7β-[2-(2-aminothiazol-4-yl)-2-methoxyiminoacetamido]-3-(5-carboxylatemethyl-4-phenylthiazol-2-yl)thiomethyl-3-cephem-4-carboxylate, reference compound] | 6.25 | 0.39 | 0.78 | 0.39 | 0.39 | 3.12 | 25 | 0.78 | 0.78 | 3.12 | 0.2 | 0.78 | 0.2 | < 0.006 | 50 | 100 | 100 | 100 | > 100 | 12.5 | 
4 | CC(C)(O/N=C(\C(=O)N[C@@H]1C(=O)N2C(C(=O)O)=C(CSc3nc(-c4ccccc4)c(CC(=O)O)s3)CS[C@H]12)c1csc(N)n1)C(=O)O [compound 16, trisodium 7β-[2-(2-aminothiazol-4-yl)-2-(1-carboxylate-1-methylethoxyimino)acetamido]-3-(5-carboxylatemethyl-4-phenylthiazol-2-yl)thio-methyl-3-cephem-4-carboxylate, reference compound] | 6.25 | 6.25 | 3.12 | 6.25 | 1.56 |  |  | 6.25 | 3.12 |  | 0.2 | 1.56 |  | < 0.006 | 50 | > 100 | 50 | 50 | > 100 |  | MIC (E. coli GN5482; [15]): 6.25 µg/mL; MIC (K. oxytoca GN10650; [10]): 3.12 µg/mL; MIC (E. cloacae Nek 39; [3]): 25 µg/mL; MIC (S. aureus 209P NIHJ-JC1; [12]): 50 µg/mL; MIC (K. pneumoniae PCI-602; [16]): 1.56 µg/mL
5 | Nc1nc(/C(=N/OC(C(=O)O)c2ccc(O)c(O)c2)C(=O)N[C@@H]2C(=O)N3C(C(=O)O)=C(CSc4nnc(-c5ccc(O)c(O)c5)o4)CS[C@H]23)cs1 (stereo partly drawn) [compound 16] |  | 0.025 (≈ 0.033 µM) | 3.12 (≈ 4.12 µM) | 0.39 (≈ 0.515 µM) | 0.2 (≈ 0.264 µM) |  |  | 0.2 (≈ 0.264 µM) | 0.2 (≈ 0.264 µM) |  | 0.78 (≈ 1.03 µM) |  | < 0.006 | 0.05 (≈ 0.066 µM) | 25 (≈ 33 µM) |  |  |  |  | 0.78 (≈ 1.03 µM) | MIC (Ps. cepacia 23; Burkholderia cepacia, 16 h, Ps. cepacia 23, 10^6 CFU/ml): < 0.006 µg/mL; MIC (E. coli GN5482; [15]): 0.78 µg/mL (≈ 1.03 µM); MIC (K. oxytoca GN10650; [10]): 0.1 µg/mL (≈ 0.132 µM); MIC (S. aureus 209P NIHJ-JC1; read-out: Minimum Inhibitory Concentration (MIC), S. aureus 209P NIHJ-JC1, 10^6 CFU/ml, 37° C., 16 hours): 1.56 µg/mL (≈ 2.06 µM); MIC (S. marcescens IAM 1184; [13]): 0.1 µg/mL (≈ 0.132 µM); MIC (A. calcoaceticus No. 4; read-out: Minimum Inhibitory Concentration (MIC), A. calcoaceticus No. 4): 0.1 µg/mL (≈ 0.132 µM); MIC (Ps. aeruginosa IF03445; [14]): 6.25 µg/mL (≈ 8.25 µM); MIC (Ps. aeruginosa AK 109; read-out: Minimum Inhibitory Concentration (MIC), Ps. aeruginosa AK 109, 10^6 CFU/ml): 0.78 µg/mL (≈ 1.03 µM); MIC (Ps. aeruginosa AKR17; AKR17, 16 h): 3.12 µg/mL (≈ 4.12 µM)
6 | CO/N=C(\C(=O)N[C@@H]1C(=O)N2C(C(=O)O)=C(CSc3nc(-c4ccc(O)cc4)c(CC(=O)O)s3)CS[C@H]12)c1csc(N)n1 [compound 17, disodium 7β-[2-(2-aminothiazol-4-yl)-2-methoxyminoacetamido]-3-[5-carboxylatemethyl-4-(4-hydroxyphenyl)thiazol-2-yl]thiomethyl-3-cephem-4-carboxylate, reference compound] | 6.25 | 0.39 | 0.78 | 0.39 | 0.39 | 3.12 | 25 | 0.39 | 0.78 | 3.12 | 0.1 | 0.39 |  | < 0.006 | 100 | 100 | 50 | 50 | > 100 | 12.5 | MIC (K. pneumoniae PCI-602; [16]): 0.1 µg/mL
